Experimental data from patent US6617357B2, “Compounds and their use as PDE inhibitors” (SmithKline Beecham Corporation, priority 2001, dated 2003).

SMILES | melting point
COc1cc(C)c(S(=O)(=O)N(C)C)cc1[N+](=O)[O-] [Example 3, 4-Methoxy-2-methyl-5-nitro(N,N-dimethyl)benzenesulfonamide] | 130 to 132 °C
Cc1cc(C)c(S(=O)(=O)N(C)C)cc1[N+](=O)[O-] [Example 2, 2,4-Dimethyl-5-nitro(N,N-dimethyl)benzenesulfonamide] | 113 °C
